Patent US8969386B2, “Modulators of CFTR” (Vertex Pharmaceuticals Incorporated, priority 2007, dated 2015)

Biological target: T1, ΔF508-CFTR (Homo sapiens, UniProt P13569, DEL508-508)
T1 construct: expressed in transfected cells
Test: ΔF508-CFTR correction, membrane potential optical (FRET/VIPR) assay
Type: cell-based
Details: NIH3T3 mouse fibroblasts stably expressing ΔF508-CFTR; for Emax: read-out: % Efficacy
Text: Assays for Detecting and Measuring ΔF508-CFTR Correction Properties of Compounds
Membrane potential optical methods for assaying ΔF508-CFTR modulation properties of compounds
The optical membrane potential assay utilized voltage-sensitive FRET sensors described by Gonzalez and Tsien (See Gonzalez, J. E. and R. Y. Tsien (1995) “Voltage sensing by fluorescence resonance energy transfer in single cells” Biophys J 69(4): 1272-80, and Gonzalez, J. E. and R. Y. Tsien (1997) “Improved indicators of cell membrane potential that use fluorescence resonance energy transfer” Chem Biol 4(4): 269-77) in combination with instrumentation for measuring fluorescence changes such as the Voltage/Ion Probe Reader (VIPR) (See Gonzalez, J. E., K. Oades, et al. (1999) “Cell-based assays and instrumentation for screening ion-channel targets” Drug Discov Today 4(9): 431-439).
These voltage sensitive assays are based on the change in fluorescence resonant energy transfer (FRET) between the membrane-soluble, voltage-sensitive dye, DiSBAC2(3), and a fluorescent phospholipid, CC2-DMPE, which is attached to the outer leaflet of the plasma membrane and acts as a FRET donor. Changes in membrane potential (Vm) cause the negatively charged DiSBAC2(3) to redistribute across the plasma membrane and the amount of energy transfer from CC2-DMPE changes accordingly. The changes in fluorescence emission were monitored using VIPR™ II, which is an integrated liquid handler and fluorescent detector designed to conduct cell-based screens in 96- or 384-well microtiter plates.
1. Identification of Correction Compounds
To identify small molecules that correct the trafficking defect associated with ΔF508-CFTR; a single-addition HTS assay format was developed. The cells were incubated in serum-free medium for 16 hrs at 37° C. in the presence or absence (negative control) of test compound. As a positive control, cells plated in 384-well plates were incubated for 16 hrs at 27° C. to “temperature-correct” ΔF508-CFTR. The cells were subsequently rinsed 3× with Krebs Ringers solution and loaded with the voltage-sensitive dyes. To activate ΔF508-CFTR, 10 μM forskolin and the CFTR potentiator, genistein (20 μM), were added along with Cl^−-free medium to each well. The addition of Cl^−-free medium promoted Cl^− efflux in response to ΔF508-CFTR activation and the resulting membrane depolarization was optically monitored using the FRET-based voltage-sensor dyes.
NIH3T3 mouse fibroblasts stably expressing ΔF508-CFTR are used for optical measurements of membrane potential. The cells are maintained at 37° C. in 5% CO2 and 90% humidity in Dulbecco's modified Eagle's medium supplemented with 2 mM glutamine, 10% fetal bovine serum, 1×NEAA, β-ME, 1× pen/strep, and 25 mM HEPES in 175 cm^2 culture flasks. For all optical assays, the cells were seeded at 30,000/well in 384-well matrigel-coated plates and cultured for 2 hrs at 37° C. before culturing at 27° C. for 24 hrs for the potentiator assay. For the correction assays, the cells are cultured at 27° C. or 37° C. with and without compounds for 16-24 hours Electrophysiological Assays for assaying ΔF508-CFTR modulation properties of compounds

T1 sequence (P13569 with tags, fused parts or gaps DEL508-508): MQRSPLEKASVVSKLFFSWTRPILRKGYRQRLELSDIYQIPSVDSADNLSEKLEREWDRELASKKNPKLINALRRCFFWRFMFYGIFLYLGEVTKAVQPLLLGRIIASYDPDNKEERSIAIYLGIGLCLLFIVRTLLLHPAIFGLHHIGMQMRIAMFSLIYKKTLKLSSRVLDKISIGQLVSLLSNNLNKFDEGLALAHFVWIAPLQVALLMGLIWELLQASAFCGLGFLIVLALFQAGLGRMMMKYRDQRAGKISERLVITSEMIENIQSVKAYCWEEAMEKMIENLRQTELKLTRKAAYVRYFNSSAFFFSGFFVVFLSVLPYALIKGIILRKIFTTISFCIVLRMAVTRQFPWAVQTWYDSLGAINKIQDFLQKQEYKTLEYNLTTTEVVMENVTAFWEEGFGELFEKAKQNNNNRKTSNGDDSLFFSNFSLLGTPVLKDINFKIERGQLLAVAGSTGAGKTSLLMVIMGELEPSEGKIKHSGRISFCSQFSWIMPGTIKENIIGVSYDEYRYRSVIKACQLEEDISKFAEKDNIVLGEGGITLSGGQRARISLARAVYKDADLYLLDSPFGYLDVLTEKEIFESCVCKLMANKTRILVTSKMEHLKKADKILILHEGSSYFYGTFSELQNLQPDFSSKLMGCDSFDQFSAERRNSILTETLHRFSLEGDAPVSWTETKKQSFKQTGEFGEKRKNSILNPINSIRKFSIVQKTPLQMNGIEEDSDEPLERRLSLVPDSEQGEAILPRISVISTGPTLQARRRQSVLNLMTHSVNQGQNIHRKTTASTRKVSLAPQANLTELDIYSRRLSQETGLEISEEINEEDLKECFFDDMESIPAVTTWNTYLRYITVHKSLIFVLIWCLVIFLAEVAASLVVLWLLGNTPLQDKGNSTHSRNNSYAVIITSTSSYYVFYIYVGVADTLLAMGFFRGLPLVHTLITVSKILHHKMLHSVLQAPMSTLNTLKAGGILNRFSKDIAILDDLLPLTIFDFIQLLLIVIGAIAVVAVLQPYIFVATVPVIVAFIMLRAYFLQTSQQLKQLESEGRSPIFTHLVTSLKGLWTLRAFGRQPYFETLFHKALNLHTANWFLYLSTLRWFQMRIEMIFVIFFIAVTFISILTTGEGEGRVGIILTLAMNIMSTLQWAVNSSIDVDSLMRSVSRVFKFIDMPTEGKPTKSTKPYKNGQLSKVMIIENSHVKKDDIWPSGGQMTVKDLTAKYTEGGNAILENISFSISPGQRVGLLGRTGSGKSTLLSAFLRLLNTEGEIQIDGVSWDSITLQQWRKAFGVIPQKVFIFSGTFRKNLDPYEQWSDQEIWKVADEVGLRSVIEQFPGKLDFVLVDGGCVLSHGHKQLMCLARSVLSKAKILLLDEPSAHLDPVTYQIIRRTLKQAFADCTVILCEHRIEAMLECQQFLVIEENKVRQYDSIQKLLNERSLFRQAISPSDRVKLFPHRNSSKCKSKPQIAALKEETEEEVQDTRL

SMILES | EC50 [nM] | Emax [%]
Cc1cc(NC(=O)C2(c3ccc4c(c3)OC(F)(F)O4)CC2)nc(-c2ccn(CCO)c(=O)c2)c1 [Compound 64] | < 2000 | > 100
COc1ccc(-c2nc(NC(=O)C3(c4ccc5c(c4)OC(F)(F)O5)CC3)ccc2C)c(C)n1 [Compound 36] | < 2000 | > 100
CCOC(=O)NCCn1cc(-c2nc(NC(=O)C3(c4ccc5c(c4)OC(F)(F)O5)CC3)ccc2C)ccc1=O [Compound 81] | < 2000 | > 100
COc1ncc(-c2nc(NC(=O)C3(c4ccc5c(c4)OC(F)(F)O5)CC3)ccc2C)cc1C(=O)O [Compound 53] | < 2000 | > 100
Cc1c[nH]c(=O)c(-c2nc(NC(=O)C3(c4ccc5c(c4)OC(F)(F)O5)CC3)cc(C)c2C)c1 [Compound 91] | < 2000 | > 100
COc1ncc(-c2nc(NC(=O)C3(c4ccc5c(c4)OC(F)(F)O5)CC3)ccc2C)cc1F [Compound 43] | < 2000 | > 100
COc1cc(-c2nc(NC(=O)C3(c4ccc5c(c4)OC(F)(F)O5)CC3)cc(C)c2C)ccn1 [Compound 58] | < 2000 | > 100
Cc1cc(NC(=O)C2(c3ccc4c(c3)OC(F)(F)O4)CC2)nc(-c2ccc[nH]c2=O)c1C [Compound 66] | < 2000 | > 100
Cc1cc(NC(=O)C2(c3ccc4c(c3)OC(F)(F)O4)CC2)nc(-c2cc(C)c[nH]c2=O)c1 [Compound 92] | < 2000 | 50 to 100
COc1cc(-c2nc(NC(=O)C3(c4ccc5c(c4)OC(F)(F)O5)CC3)ccc2C)cc(C)n1 [Compound 105] | < 2000 | 50 to 100
Cc1cc(=O)[nH]cc1-c1nc(NC(=O)C2(c3ccc4c(c3)OC(F)(F)O4)CC2)cc(C)c1C [Compound 90] | < 2000 | > 100
CCc1ccc(NC(=O)C2(c3ccc4c(c3)OC(F)(F)O4)CC2)nc1-c1ccc(OC)nc1 [Compound 30] | < 2000 | 50 to 100

Second part, the compound after the results:

EC50 [nM] | Emax [%] | SMILES
< 2000 | 50 to 100 | Cc1ccc(NC(=O)C2(c3ccc4c(c3)OC(F)(F)O4)CC2)nc1-c1ccc(=O)[nH]c1O [Compound 28]
< 2000 | 50 to 100 | COc1ccc(C2(C(=O)Nc3ccc(C)c(-c4ccc(OC)nc4)n3)CC2)cc1 [Compound 2]
< 2000 | 50 to 100 | Cc1cc(=O)[nH]cc1-c1nc(NC(=O)C2(c3ccc4c(c3)OC(F)(F)O4)CC2)ccc1C [Compound 14]
< 2000 | 50 to 100 | Cc1ccc(NC(=O)C2(c3ccc4c(c3)CCO4)CC2)nc1-c1c[nH]c(=O)c(C)c1 [Compound 76]
< 2000 | 50 to 100 | COc1ccc(C2(C(=O)Nc3ccc(C)c(-c4c[nH]c(=O)c(C)c4)n3)CC2)cc1Cl [Compound 62]
< 2000 | 50 to 100 | Cc1cc(NC(=O)C2(c3ccc4c(c3)CCO4)CC2)nc(-c2ccc(=O)[nH]c2)c1C [Compound 112]
< 2000 | 50 to 100 | COc1ccc(C2(C(=O)Nc3ccc(C)c(-c4cc[nH]c(=O)c4)n3)CC2)cc1 [Compound 26]
< 2000 | > 100 | COc1cc(-c2nc(NC(=O)C3(c4ccc5c(c4)OC(F)(F)O5)CC3)ccc2C)ccn1 [Compound 11]
< 2000 | 50 to 100 | Cc1ccc(NC(=O)C2(c3ccc4c(c3)OC(F)(F)O4)CC2)nc1-c1ccc(=O)n(C)c1 [Compound 52]
< 2000 | > 100 | Cc1cc(NC(=O)C2(c3ccc4c(c3)OC(F)(F)O4)CC2)nc(-c2ccc(=O)[nH]c2)c1 [Compound 27]
< 2000 | 50 to 100 | Cc1ccc(NC(=O)C2(c3ccc4c(c3)CCO4)CC2)nc1-c1ccc(=O)[nH]c1 [Compound 78]
< 2000 | 50 to 100 | Cc1cc(NC(=O)C2(c3ccc4c(c3)CCO4)CC2)nc(-c2ccc[nH]c2=O)c1C [Compound 114]
2000 to 5000 | 50 to 100 | Cc1ccc(NC(=O)C2(c3ccc4c(c3)OC(F)(F)O4)CC2)nc1-c1c[nH]c(=O)c(C(N)=O)c1 [Compound 34]
< 2000 | 50 to 100 | Cc1ccc(NC(=O)C2(c3ccc4c(c3)OC(F)(F)O4)CC2)nc1-c1c[nH]c(=O)c(CO)c1 [Compound 1]
